Measured values: publication PMC10698726 (Molecular Pharmaceutics, 2023)
Read-outs that look alike come from different tables or passages of the source.

Tests used:
[1] = molecular target: T1, OCT1 (Homo sapiens, UniProt O15245); details: cited from earlier work
T1 sequence (O15245 1-554): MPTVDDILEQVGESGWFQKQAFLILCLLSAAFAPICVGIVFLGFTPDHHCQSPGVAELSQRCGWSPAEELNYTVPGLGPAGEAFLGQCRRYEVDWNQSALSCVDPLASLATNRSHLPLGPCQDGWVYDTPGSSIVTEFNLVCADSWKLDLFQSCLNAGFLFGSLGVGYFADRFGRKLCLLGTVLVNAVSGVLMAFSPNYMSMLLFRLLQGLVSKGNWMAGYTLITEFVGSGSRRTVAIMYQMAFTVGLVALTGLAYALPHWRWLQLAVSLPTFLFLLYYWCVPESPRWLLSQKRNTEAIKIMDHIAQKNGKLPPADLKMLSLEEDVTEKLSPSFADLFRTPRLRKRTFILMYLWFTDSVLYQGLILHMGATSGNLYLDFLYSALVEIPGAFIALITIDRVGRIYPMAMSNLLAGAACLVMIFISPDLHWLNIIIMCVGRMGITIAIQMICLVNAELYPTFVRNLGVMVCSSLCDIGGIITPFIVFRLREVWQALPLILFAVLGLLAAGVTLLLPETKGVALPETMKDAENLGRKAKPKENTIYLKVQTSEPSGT

[2] = molecular target: T1, OCT1; assay: Inhibition of model substrate uptake in OCT1-overexpressing HEK293 cells; format: cell-based; parameters: expressed in transfected cells; host or cells: HEK293; details: OCT1, 20 μM inhibitor, 5 min; for inhibition at 5 min, 20 μM: human, OCT1-overexpressing HEK293 cells
Experimental: (§1) Koepsell and Gorbulev (University of Würzburg, Germany).
Fluorescence quantification was performed in technical duplicates.

[3] = molecular target: T2, OCT3 (Homo sapiens, UniProt O75751); assay: Inhibition of model substrate uptake in OCT3-overexpressing HEK293 cells; format: cell-based; details: 20 μM inhibitor, 5 min
T2 construct: expressed in transfected cells; host or cells: HEK293
T2 sequence (O75751 1-556): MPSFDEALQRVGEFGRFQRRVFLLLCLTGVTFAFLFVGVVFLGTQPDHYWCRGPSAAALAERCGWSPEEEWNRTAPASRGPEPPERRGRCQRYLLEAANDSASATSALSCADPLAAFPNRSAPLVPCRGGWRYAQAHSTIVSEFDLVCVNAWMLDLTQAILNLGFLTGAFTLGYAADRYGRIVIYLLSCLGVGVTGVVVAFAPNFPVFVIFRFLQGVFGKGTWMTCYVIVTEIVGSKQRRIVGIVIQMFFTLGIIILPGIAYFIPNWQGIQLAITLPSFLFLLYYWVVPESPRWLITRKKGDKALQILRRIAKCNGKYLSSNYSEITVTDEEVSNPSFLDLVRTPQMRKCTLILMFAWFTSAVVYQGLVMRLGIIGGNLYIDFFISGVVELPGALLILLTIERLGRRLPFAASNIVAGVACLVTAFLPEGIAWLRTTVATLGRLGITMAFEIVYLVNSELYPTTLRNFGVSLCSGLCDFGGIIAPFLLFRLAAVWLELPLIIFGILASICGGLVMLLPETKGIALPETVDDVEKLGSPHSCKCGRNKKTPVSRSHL
How it was run: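 IC50 values were fitted with a Hill equation from net uptake, calculated as uptake in overexpressing HEK293 cells minus empty-vector control uptake. Cells were exposed for 5 min to 2 μM model substrate alone, with 20 μM inhibitor, or with a concentration series. Uptake was quantified by ASP^+ fluorescence or LC–MS/MS after lysis in 80% acetonitrile.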

[4] = oral administration, cited from earlier work
[5] = molecular target: T3, OCT2 (Homo sapiens, UniProt O15244); assay: Inhibition of model substrate uptake in OCT2-overexpressing HEK293 cells; details: for IC50: IC50 [μM], OCT2, Table 1; for (S,S)-Ethambutol inhibition [%] / ASP+ inhibition [%] / N-Ethyllidocaine inhibition [%] / inhibition at 5 min, 20 μM: OCT2, 20 μM inhibitor, 5 min
T3 sequence (O15244 1-555): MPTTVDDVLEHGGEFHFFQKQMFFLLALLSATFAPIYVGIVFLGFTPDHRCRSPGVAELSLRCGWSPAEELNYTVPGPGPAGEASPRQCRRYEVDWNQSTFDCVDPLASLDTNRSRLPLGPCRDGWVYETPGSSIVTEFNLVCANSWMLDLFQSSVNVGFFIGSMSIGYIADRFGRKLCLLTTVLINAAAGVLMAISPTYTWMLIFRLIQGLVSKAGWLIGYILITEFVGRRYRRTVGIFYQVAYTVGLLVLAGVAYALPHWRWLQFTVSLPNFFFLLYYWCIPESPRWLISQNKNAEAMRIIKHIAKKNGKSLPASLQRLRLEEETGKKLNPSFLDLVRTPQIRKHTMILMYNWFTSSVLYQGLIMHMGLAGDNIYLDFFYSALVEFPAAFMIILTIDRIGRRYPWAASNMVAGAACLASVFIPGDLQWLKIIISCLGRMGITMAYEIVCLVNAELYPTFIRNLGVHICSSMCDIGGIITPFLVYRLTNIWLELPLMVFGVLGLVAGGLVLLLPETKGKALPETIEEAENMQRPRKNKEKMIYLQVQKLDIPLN

[6] = molecular target: T1, OCT1; assay: Concentration-dependent uptake of model substrates, OCT1-overexpressing HEK293 cells; format: in vitro ADME; parameters: expressed in transfected cells; host or cells: HEK293; details: vmax over Km, this study
Experimental: as §1
(§2) Prior to inhibition studies, the used model substrates were validated in concentration-dependent uptake experiments if no literature data were available (Table S2 and Figures S2 and S3). Thereby, we ensured that the model substrate concentration used in the subsequent inhibition experiments was sufficiently below the Km value of its uptake kinetics. […] On the day of the experiment, the cells were washed once with prewarmed to 37 °C HBSS (Thermo Fisher Scientific, Darmstadt, Germany) supplemented with 10 mM HEPES and pH adjusted to 7.4 (Sigma-Aldrich)—hereafter termed HBSS+. For concentration-dependent experiments, the cells were incubated with increasing substrate concentrations for 2 min. Uptake was terminated by adding ice-cold HBSS+. Afterward, the cells were washed twice with ice-cold HBSS+, and cell lysis was done with 80% (v/v) acetonitrile (LGC Standards, Wesel, Germany) to which an internal standard for eventual LC–MS/MS analysis had been added. Intracellularly accumulated substrates were then quantified by LC–MS/MS analysis, and calibration was performed with known concentrations of the respective substances. All uptake data were normalized to the number of seeded cells by measuring the total protein content in radioimmunoprecipitation assay buffer-lysed cells in a bicinchoninic acid assay.[29]

[7] = molecular target: T3, OCT2; assay: Concentration-dependent uptake of model substrates, OCT2-overexpressing HEK293 cells; format: in vitro ADME; parameters: expressed in transfected cells; host or cells: HEK293; details: vmax over Km, this study
Experimental: as §1, §2

[8] = molecular target: T2, OCT3; assay: Concentration-dependent uptake of model substrates, OCT3-overexpressing HEK293 cells; format: in vitro ADME; details: vmax over Km, this study
Experimental: as §1, §2

[9] = molecular target: T4, SERT (Homo sapiens, UniProt P31645); assay: Concentration-dependent MPP+ uptake, SERT-overexpressing HEK293 cells; format: in vitro ADME; details: this study
T4 construct: expressed in transfected cells; host or cells: HEK293
Experimental: as §1, §2

[10] = molecular target: T5, DAT (Homo sapiens, UniProt Q01959); assay: Concentration-dependent MPP+ uptake, DAT-overexpressing HEK293 cells; format: in vitro ADME; details: this study
T5 construct: expressed in transfected cells; host or cells: HEK293
Experimental: as §1, §2

[11] = molecular target: T6, NET (Homo sapiens, UniProt P23975); assay: Concentration-dependent MPP+ uptake, NET-overexpressing HEK293 cells; format: in vitro ADME; details: this study
T6 construct: expressed in transfected cells; host or cells: HEK293
Experimental: as §1, §2

[12] = pH 7.4, probe (S,S)-ethambutol (2 μM), (S,S)-Ethambutol inhibition [%], 2 μM (S,S)-ethambutol
[13] = pH 7.4, probe ASP+ (2 μM), 2 μM ASP+, mean of three experiments, read-out: ASP+ inhibition [%]
[14] = pH 7.4, probe sumatriptan (2 μM), 2 μM sumatriptan, read-out: Sumatriptan inhibition [%]
[15] = HEK293, 5 min, read-out: (S)-Zolmitriptan inhibition [%], OCT3, 2 μM (S)-zolmitriptan
[16] = HEK293, 5 min, read-out: (S,S)-Ethambutol inhibition [%], OCT3, 2 μM (S,S)-ethambutol
[17] = HEK293, OCT3, 2 μM ASP+, read-out: ASP+ inhibition [%]
[18] = amisulpride, single dose (50 mg)
[19] = citalopram, multiple doses (40 mg, once daily for 21 d)
[20] = human, OCT2-overexpressing HEK293 cells, pH 7.4, probe (S,S)-ethambutol (2 μM), (S,S)-Ethambutol inhibition [%], 2 μM (S,S)-ethambutol
[21] = human, OCT2-overexpressing HEK293 cells, pH 7.4, probe ASP+ (2 μM), ASP+ inhibition [%], 2 μM ASP+
[22] = human, OCT2-overexpressing HEK293 cells, pH 7.4, probe N-ethyllidocaine (2 μM), N-Ethyllidocaine inhibition [%], 2 μM N-ethyllidocaine
[23] = 2 μM ASP+, mean of three experiments
[24] = ref 2 (Matthaei et al., 2016, supplement)

T6 sequence (P23975 whole entry): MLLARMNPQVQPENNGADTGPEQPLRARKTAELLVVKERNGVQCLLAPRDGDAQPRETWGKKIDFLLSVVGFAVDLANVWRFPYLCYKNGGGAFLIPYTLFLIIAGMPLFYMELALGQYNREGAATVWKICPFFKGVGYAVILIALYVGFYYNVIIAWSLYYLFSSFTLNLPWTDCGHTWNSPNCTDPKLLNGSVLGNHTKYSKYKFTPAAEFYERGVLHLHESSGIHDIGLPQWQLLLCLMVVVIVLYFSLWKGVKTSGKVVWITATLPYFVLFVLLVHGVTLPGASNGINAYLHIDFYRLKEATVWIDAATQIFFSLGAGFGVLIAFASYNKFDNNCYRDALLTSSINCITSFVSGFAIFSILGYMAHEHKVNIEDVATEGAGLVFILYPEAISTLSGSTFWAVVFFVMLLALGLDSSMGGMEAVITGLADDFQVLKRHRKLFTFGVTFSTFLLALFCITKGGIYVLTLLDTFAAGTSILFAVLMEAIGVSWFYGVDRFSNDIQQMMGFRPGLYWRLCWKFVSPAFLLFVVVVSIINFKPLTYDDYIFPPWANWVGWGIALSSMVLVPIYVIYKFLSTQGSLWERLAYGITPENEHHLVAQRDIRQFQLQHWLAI
T4 sequence (P31645 whole entry): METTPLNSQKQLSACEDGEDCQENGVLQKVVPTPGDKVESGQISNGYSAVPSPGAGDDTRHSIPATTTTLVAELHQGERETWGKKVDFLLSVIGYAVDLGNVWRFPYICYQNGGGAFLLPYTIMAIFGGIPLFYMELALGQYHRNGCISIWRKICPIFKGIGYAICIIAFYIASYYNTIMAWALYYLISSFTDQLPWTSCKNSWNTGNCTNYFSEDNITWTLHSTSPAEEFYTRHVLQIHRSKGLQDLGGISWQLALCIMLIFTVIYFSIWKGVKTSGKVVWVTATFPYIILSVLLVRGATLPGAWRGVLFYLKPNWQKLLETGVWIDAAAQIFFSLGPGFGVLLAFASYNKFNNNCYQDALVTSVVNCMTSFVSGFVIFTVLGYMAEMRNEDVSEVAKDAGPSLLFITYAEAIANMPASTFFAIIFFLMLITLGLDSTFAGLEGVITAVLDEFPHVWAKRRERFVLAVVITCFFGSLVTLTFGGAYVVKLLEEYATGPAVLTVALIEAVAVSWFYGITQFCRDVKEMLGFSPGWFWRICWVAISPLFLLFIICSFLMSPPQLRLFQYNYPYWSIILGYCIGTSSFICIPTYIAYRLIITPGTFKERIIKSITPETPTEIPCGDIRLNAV
T5 sequence (Q01959 whole entry): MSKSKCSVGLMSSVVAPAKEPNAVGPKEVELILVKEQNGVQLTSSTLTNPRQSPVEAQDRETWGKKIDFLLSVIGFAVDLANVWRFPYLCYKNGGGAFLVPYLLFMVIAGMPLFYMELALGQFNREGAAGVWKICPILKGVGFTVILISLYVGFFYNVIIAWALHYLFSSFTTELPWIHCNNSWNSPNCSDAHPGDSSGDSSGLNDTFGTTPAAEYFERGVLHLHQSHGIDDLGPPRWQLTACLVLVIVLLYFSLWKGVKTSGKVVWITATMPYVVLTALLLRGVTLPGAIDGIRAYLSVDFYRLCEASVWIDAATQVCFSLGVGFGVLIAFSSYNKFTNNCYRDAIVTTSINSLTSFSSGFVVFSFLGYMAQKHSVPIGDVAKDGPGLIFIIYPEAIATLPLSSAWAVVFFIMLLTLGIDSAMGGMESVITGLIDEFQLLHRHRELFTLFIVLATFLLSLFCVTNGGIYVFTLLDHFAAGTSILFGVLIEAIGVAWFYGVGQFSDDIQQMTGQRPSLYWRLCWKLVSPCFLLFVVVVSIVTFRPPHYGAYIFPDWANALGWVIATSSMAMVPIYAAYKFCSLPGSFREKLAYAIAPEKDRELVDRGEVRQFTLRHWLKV

CC(Cc1ccc(O)cc1)NCC(O)c1cc(O)cc(O)c1 (racemic) [rac Fenoterol, Fenoterol]
Clint ± SEM ([1]; ref 1 (Tzvetkov et al., 2018, supplement)): 33.0

CCN1CCC[C@@H]1CNC(=O)c1cc(S(=O)(=O)CC)c(N)cc1OC [(R)-Amisulpride]
inhibition at 5 min, 20 μM [2, 12]: 57.7%
inhibition at 5 min, 20 μM [2, 13]: 25.2%
inhibition at 5 min, 20 μM [2, 14]: 29.3%
inhibition at 20 µM [3, 15]: 56%
inhibition at 20 µM [3, 16]: 81.3%
inhibition at 20 µM [3, 17]: 37.9%
Imax [4, 18]: 0.158 µM
IC50 [5]: 9.4 µM
(S,S)-Ethambutol inhibition [%] ([5]; 2 μM (S,S)-ethambutol): -5.7%
ASP+ inhibition [%] ([5]; 2 μM ASP+): 65.9%
N-Ethyllidocaine inhibition [%] ([5]; 2 μM N-ethyllidocaine): 11.3%

CN(C)CCC[C@]1(c2ccc(F)cc2)OCc2cc(C#N)ccc21 [(R)-Citalopram]
inhibition at 5 min, 20 μM [2, 12]: 72.8%
inhibition at 5 min, 20 μM [2, 13]: 28.9%
inhibition at 5 min, 20 μM [2, 14]: 78%
inhibition at 20 µM [3, 15]: 11.8%
inhibition at 20 µM [3, 16]: 17.2%
inhibition at 20 µM [3, 17]: 4.5%
Imax [4, 19]: 0.228 µM
IC50 [5]: 17.8 µM
inhibition at 5 min, 20 μM [5, 20]: 1.4%
inhibition at 5 min, 20 μM [5, 21]: 52.1%
inhibition at 5 min, 20 μM [5, 22]: 28.4%

CCN1CCC[C@H]1CNC(=O)c1cc(S(=O)(=O)CC)c(N)cc1OC [(S)-Amisulpride]
(S,S)-Ethambutol inhibition [%] ([2]; 2 μM (S,S)-ethambutol): 51.7%
ASP+ inhibition [%] [2, 23]: 23.5%
Sumatriptan inhibition [%] ([2]; 2 μM sumatriptan): 15.2%
(S)-Zolmitriptan inhibition [%] ([3]; OCT3, 2 μM (S)-zolmitriptan): 46.0%
(S,S)-Ethambutol inhibition [%] ([3]; OCT3, 2 μM (S,S)-ethambutol): 73.1%
ASP+ inhibition [%] ([3]; OCT3, 2 μM ASP+): 33.7%
Imax [4, 18]: 0.182 µM
IC50 [5]: 29.8 µM
(S,S)-Ethambutol inhibition [%] ([5]; 2 μM (S,S)-ethambutol): -13.2%
ASP+ inhibition [%] ([5]; 2 μM ASP+): 38.0%
N-Ethyllidocaine inhibition [%] ([5]; 2 μM N-ethyllidocaine): 1.9%
selectivity ratio at 5 min ([5]; human, OCT2-overexpressing HEK293 cells, pH 7.4): 3.2

CN(C)CCC[C@@]1(c2ccc(F)cc2)OCc2cc(C#N)ccc21 [(S)-Citalopram]
inhibition at 5 min, 20 μM [2, 12]: 80.1%
inhibition at 5 min, 20 μM [2, 13]: 37.2%
inhibition at 5 min, 20 μM [2, 14]: 77.6%
inhibition at 20 µM [3, 15]: 19.2%
inhibition at 20 µM [3, 16]: 31.7%
inhibition at 20 µM [3, 17]: 10.9%
Imax [4, 19]: 0.154 µM
IC50 [5]: 10.7 µM
inhibition at 5 min, 20 μM [5, 20]: -9.7%
inhibition at 5 min, 20 μM [5, 21]: 68.6%
inhibition at 5 min, 20 μM [5, 22]: 26.5%

CCC(CO)NCCNC(CC)CO [(S,S)-Ethambutol]
Clint ± SEM [6]: 14.1
ASP+ inhibition [%] [2, 23]: 5.5%
Sumatriptan inhibition [%] ([2]; 2 μM sumatriptan): 17.8%
Clint ± SEM [7]: 36.6
(S)-Zolmitriptan inhibition [%] ([3]; OCT3, 2 μM (S)-zolmitriptan): -1.3%
ASP+ inhibition [%] ([3]; OCT3, 2 μM ASP+): 3.7%
Clint ± SEM [8]: 16.9
ASP+ inhibition [%] ([5]; 2 μM ASP+): 38.8%
N-Ethyllidocaine inhibition [%] ([5]; 2 μM N-ethyllidocaine): 10.0%

C[n+]1ccc(-c2ccccc2)cc1 [MPP+, 1-methyl-4-phenylpyridinium]
vmax ± SEM [pmol × mg Protein−1 × min−1] [9]: 627 pmol × mg Protein−1 × min−1
Km ([9]; read-out: Km ± SEM): 21.1 µM
Clint ± SEM ([9]; vmax over Km): 29.7
vmax ± SEM [pmol × mg Protein−1 × min−1] [10]: 2107 pmol × mg Protein−1 × min−1
Km ([10]; read-out: Km ± SEM): 20.1 µM
Clint ± SEM ([10]; vmax over Km): 104
vmax ± SEM [pmol × mg Protein−1 × min−1] [11]: 381 pmol × mg Protein−1 × min−1
Km ([11]; read-out: Km ± SEM): 2.5 µM
Clint ± SEM ([11]; vmax over Km): 152

CNS(=O)(=O)Cc1ccc2[nH]cc(CCN(C)C)c2c1 [Sumatriptan]
Km ([1]; read-out: Km ± SEM, ref 2 (Matthaei et al., 2016, supplement)): 55.4 µM
Clint ± SEM [1, 24]: 17.6
vmax ± SEM [pmol × mg Protein−1 × min−1] [1, 24]: 978 pmol × mg Protein−1 × min−1
